Data published in paper PMC9005971, “Discovery of 2-(4-Acrylamidophenyl)-Quinoline-4-Carboxylic Acid Derivatives as Potent SIRT3 Inhibitors” (Frontiers in Chemistry, 2022).

Experiments:
SIRT3 = target: T1, SIRT3 (Homo sapiens, UniProt Q9NTG7); experiment: SIRT3 enzyme inhibitory assay (fluorescence); type: biochemical; conditions: for activity at 0.01 µM / activity at 0.033 µM / activity at 0.1 µM / activity at 0.333 µM / activity at 1 µM / activity at 3.3 µM / activity at 10 µM / activity at 33 µM / activity at 100 µM: SIRT3 enzyme activity; for activity at 0.01 µM: 10 nM; for activity at 0.033 µM: 33 nM; for activity at 0.1 µM: 100 nM; for activity at 0.333 µM: 333 nM
T1 sequence (Q9NTG7 1-399): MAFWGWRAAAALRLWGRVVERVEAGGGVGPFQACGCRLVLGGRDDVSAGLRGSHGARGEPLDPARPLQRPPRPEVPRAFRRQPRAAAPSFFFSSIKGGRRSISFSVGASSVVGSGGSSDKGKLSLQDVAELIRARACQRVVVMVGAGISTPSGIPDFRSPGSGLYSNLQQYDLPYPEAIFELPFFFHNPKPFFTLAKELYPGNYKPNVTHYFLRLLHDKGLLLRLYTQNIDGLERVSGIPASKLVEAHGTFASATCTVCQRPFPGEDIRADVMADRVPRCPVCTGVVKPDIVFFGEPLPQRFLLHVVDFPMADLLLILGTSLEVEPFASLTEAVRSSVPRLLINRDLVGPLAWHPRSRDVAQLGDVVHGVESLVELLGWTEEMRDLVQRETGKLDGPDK
Method: (§1) All of the enzymatic reactions were conducted at 37°C for 30 min. […] The compounds were diluted in 10% DMSO and 5 ul of the dilution was added to each reaction mixture (50 ul). The assay was performed by quantitating the amount of fluorescent product generated from the enzyme reaction. Fluorescence intensity is then analyzed at excitation wavelength of 350–360 nm and emission wavelength of 450–460 nm on a SpectraMax M5 microtiter plate reader. The IC50 values were calculated using Prism GraphPad software.

SIRT1 = target: T2, SIRT1 (Homo sapiens, UniProt Q96EB6); experiment: SIRT1 enzyme inhibitory assay (fluorescence); type: biochemical; conditions: for activity at 0.01 µM / activity at 0.033 µM / activity at 0.1 µM / activity at 0.333 µM / activity at 1 µM / activity at 3.3 µM / activity at 10 µM / activity at 33 µM / activity at 100 µM: SIRT1 enzyme activity; for activity at 0.01 µM: 10 nM; for activity at 0.033 µM: 33 nM; for activity at 0.1 µM: 100 nM; for activity at 0.333 µM: 333 nM
T2 sequence (Q96EB6 1-747): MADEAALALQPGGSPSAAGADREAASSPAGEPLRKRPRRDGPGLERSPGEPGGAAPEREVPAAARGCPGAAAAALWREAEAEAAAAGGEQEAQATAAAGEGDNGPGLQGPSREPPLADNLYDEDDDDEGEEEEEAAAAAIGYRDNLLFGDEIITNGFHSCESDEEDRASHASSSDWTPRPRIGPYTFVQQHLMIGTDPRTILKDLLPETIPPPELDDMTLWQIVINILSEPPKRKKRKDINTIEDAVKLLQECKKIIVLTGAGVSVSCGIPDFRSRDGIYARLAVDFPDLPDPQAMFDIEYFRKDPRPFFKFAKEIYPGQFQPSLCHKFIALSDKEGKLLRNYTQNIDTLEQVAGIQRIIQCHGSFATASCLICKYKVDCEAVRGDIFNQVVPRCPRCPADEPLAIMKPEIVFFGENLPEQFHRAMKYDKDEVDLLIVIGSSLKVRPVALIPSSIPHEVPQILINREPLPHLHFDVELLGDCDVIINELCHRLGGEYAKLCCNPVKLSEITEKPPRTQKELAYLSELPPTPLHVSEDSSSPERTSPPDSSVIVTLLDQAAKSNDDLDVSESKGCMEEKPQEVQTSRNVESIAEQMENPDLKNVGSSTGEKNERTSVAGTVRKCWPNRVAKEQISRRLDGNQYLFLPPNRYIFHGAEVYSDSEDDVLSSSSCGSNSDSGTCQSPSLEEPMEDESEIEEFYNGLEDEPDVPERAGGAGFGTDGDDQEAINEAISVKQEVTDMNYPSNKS
Method: as §1

MOLM-13 cells = experiment: In vitro antiproliferative CCK-8 assay, MOLM-13; type: cell-based; conditions: Homo sapiens, 72 h, read-out: IC50 growth inhibition MOLM-13
Method: (§2) The proliferation of THP-1, MOLM-13, SEM and MV4-11 cells was tested by CCK-8 assay. Briefly, cells were seeded in 96-well plate with about 5 × 10^3 cells in each well. The cells were treated with P6 or Ara-C (0–10 µM) after 24 h of incubation. CCK-8 reagent ([…]) was added to each well after 72 h of incubation, and cells were incubated at 37°C for 4 h. The light absorbance at 450 nm was measured by using an Opsys microplate reader (Dynex Technologirs, Chantilly, VA, United States). Results are illustrated as percent of cell viability normalized to DMSO-treated control cells.

MV4-11 cells = experiment: In vitro antiproliferative CCK-8 assay, MV4-11; type: cell-based; conditions: Homo sapiens, 72 h, read-out: IC50 growth inhibition MV4-11
Method: as §2

[1] = test system: THP-1, MOLM-13, SEM and MV4-11 cells; experiment: Colony formation assay, MLLr leukemic cells; type: cell-based; conditions: 0.2–2.0 µM, 12 days
Method: THP-1, MOLM-13, SEM and MV4-11 cells were cultured with P6 (0–2.0 µM) in 2.6% methycellulose medium containing 10% FBS in a 24-well flat-bottomed plate for 12 days ([Qu et al., 2021]). The number of individual colonies consisting of more than approximately 50 cells was counted by a CX43 microscope (Olympus, Shinjuku-ku, Tokyo, Japan) with an Olympus EP50 camera (Olympus, Shinjuku-ku, Tokyo, Japan).

[2] = test system: THP-1, MOLM-13, SEM and MV4-11 cells; experiment: Cell apoptosis analysis, MLLr leukemic cells; type: cell-based; conditions: 72 h, flow cytometry
Method: THP-1, MOLM-13, SEM and MV4-11 cells were treated with P6 (0.45–4 µM) or Ara-C (0.1–2.0 µM) for 72 h, collected and resuspended in 1× binding buffer. Cells were incubated with FITC Annexin V and PI double labeling for 30 min in the dark at room temperature and measured by flow cytometry.

activity at 0.01 µM (SIRT3; Repeat1): 101% | activity at 0.01 µM (SIRT3; Repeat2): 99% | activity at 0.033 µM (SIRT3; Repeat1): 98% | activity at 0.033 µM (SIRT3; Repeat2): 97% | activity at 0.1 µM (SIRT3; Repeat1): 104% | activity at 0.1 µM (SIRT3; Repeat2): 95% | activity at 0.333 µM (SIRT3; Repeat1): 95% | activity at 0.333 µM (SIRT3; Repeat2): 88% | activity at 1 µM (SIRT3; Repeat1): 76% | activity at 1 µM (SIRT3; Repeat2): 74% | activity at 3.3 µM (SIRT3; Repeat1): 61% | activity at 3.3 µM (SIRT3; Repeat2): 59% | activity at 10 µM (SIRT3; Repeat1): 38% | activity at 10 µM (SIRT3; Repeat2): 38% | activity at 33 µM (SIRT3; Repeat1): 33% | activity at 33 µM (SIRT3; Repeat2): 31% | activity at 100 µM (SIRT3; Repeat1): 24% | activity at 100 µM (SIRT3; Repeat2): 21% | inhibition at 10 µM (SIRT3; dose of 10 μM, mean of three experiments, read-out: SIRT3 percentage inhibitory rate): 65.2 ± 3.26% | selectivity among SIRT1-3 (SIRT3; enzyme selectivity test, SIRT3 vs SIRT1 and SIRT2): can selectively inhibit SIRT3 | IC50 (SIRT3; mean of two experiments): 7.2 ± 0.5 µM | activity at 0.01 µM (SIRT1; Repeat1): 98% | activity at 0.01 µM (SIRT1; Repeat2): 102% | activity at 0.033 µM (SIRT1; Repeat1): 97% | activity at 0.033 µM (SIRT1; Repeat2): 98% | activity at 0.1 µM (SIRT1; Repeat1): 100% | activity at 0.1 µM (SIRT1; Repeat2): 97% | activity at 0.333 µM (SIRT1; Repeat1): 101% | activity at 0.333 µM (SIRT1; Repeat2): 95% | activity at 1 µM (SIRT1; Repeat1): 97% | activity at 1 µM (SIRT1; Repeat2): 89% | activity at 3.3 µM (SIRT1; Repeat1): 91% | activity at 3.3 µM (SIRT1; Repeat2): 85% | activity at 10 µM (SIRT1; Repeat1): 61% | activity at 10 µM (SIRT1; Repeat2): 64% | activity at 33 µM (SIRT1; Repeat1): 42% | activity at 33 µM (SIRT1; Repeat2): 40% | activity at 100 µM (SIRT1; Repeat1): 25% | activity at 100 µM (SIRT1; Repeat2): 26% | IC50 (SIRT1; mean of two experiments): 32.6 ± 0.8 µM | IC50 (MOLM-13 cells): 0.98 µM | IC50 (MV4-11 cells): 1.9 µM
SMILES: C=CC(=O)Nc1ccc(-c2cc(C(=O)N3CCN(c4ccccc4F)CC3)c3ccccc3n2)cc1 [Compound P6, N-(4-{4-[4-(2-Fluoro-phenyl)-piperazine-1-carbonyl]-quinolin-2-yl}-phenyl)-acrylamide]
effect on number of colonies [1]: significantly reduce the number of colonies with a dose dependent manner | induction of apoptosis [2]: no significant apoptosis
